Series [1] is described as follows: Particle size analysis (granulometry) by laser dispersion. The series is classed as physicochemical. Conditions: dispersing fluid silicone oil. As for the experimental part: Particle size can be determined, for example by laser dispersion on a Beckman Coulter LS13320 provided with a MLM (Micro Liquid Module) (measure range: 0.4 to 2000 μm; optic model: Fraunhofer.rdf, PIDS included).
Particle size analysis (granulometry) was performed by laser dispersion on a Beckman Coulter LS13320 provided with a MLM (Micro Liquid Module) (measure range: 0.4 to 2000 μm; optic model: Fraunhofer.rdf, PIDS included).
In a beaker about 10 ml of silicone oil and a microspoon of sample were placed. The sample was homogeneized by pipetting it repeatedly with a pasteurized pipette and by subjecting it to ultrasonic treatment (30 KHz; 200 W). The module was cleaned and filled with silicone oil as a dispersing fluid. Before each analysis, an optical alignment of the laser and a measure of the instrument noise was made.

Series [2] can be described thus: Dissolution rate of ubiquinone vs cocrystals in FaSSIF-v2 medium (small-scale dissolution assay). The series is classed as physicochemical. As to conditions: for Dissolution rate: tablet 8 mm, exposed surface 0.5 cm^2, FaSSIF-v2 medium pH 6.50, 25° C., Noyes-Whitney fit; for Dissolution rate compared with ubiquinone (in words): FaSSIF-v2 medium pH 6.50, 25° C. As for the experimental part:
1. Dissolution Rate Experiments • Tablet production: tablets of 8 mm diameter were made using a manual hydraulic tablet press (Applied Measurements Ltd, UK) up to a compression weight of 70 Kg. 40-50 mg of compound, ubiquinone or co-crystal, were weighted. The total exposed surface area was 0.5 cm^2. • Medium: aqueous solution containing 106 mM sodium chloride, 28.4 mM monobasic sodium phosphate, and 8.7 mM sodium hydroxide, adjusted with sodium hydroxide to pH 6.50. • Dissolution tests were performed with a small-scale dissolution assay installed in a GlpKa™ titrator (Sirius Analytical Instruments, UK). • Dissolution time and temperature: 2 hours and 25° C. • Procedure: 15 mL of aqueous medium was added into the sample vial containing the tablet. Spectra were recorded every 30 seconds for 1 hour through Sirius D-PAS spectrometer, with a bifurcated optic fibre dip probe (Hellma Analytics). The medium was stirred at a constant rate.
2. HPLC-MS/MS Quantification • HPLC conditions: • Instrument: Agilent HPLC, consisting on two pumps, oven, and an autoinjector. • Column: Teknokroma C8, 150×4.6 mm, 5 μm. • Mobile phase: 5 mM ammonium formate in methanol:isopropanol (90:10). • Elution mode: isocratic. • Column temperature: 35° C. • Flow rate: 1 mL/min. • Injection volume: […]. • Retention time of ubiquinone: 8.5 min. • MS conditions: • Instrument: Linear Ion Trap Quadrupole LC/MS/MS Mass Spectrometer 6500 Q TRAP (AB SCIEX Instruments). • Curtain Gas: 25 p.s.i. • Source temperature: 400° C. • Ion Source Gas 1: 50 p.s.i. • Ion Source Gas 2: 50 p.s.i. • Ion Spray Voltage: 5500 V. • Mode: positive ionization. • Scan mode: MRM. • Transitions for ubiquinone: • Quantification: 880.8 (Q1)—197.1 (Q3); DP=100, CE=25; Dwell time=1000 ms • Confirmation: 880.8 (Q1)—149.3 (Q3); DP=90, CE=45; Dwell time=1000 ms.
Dissolution rates of the cocrystals were determined by monitoring the dissolution profile of the different coformers. Molar extinction coefficients (MEC) of the coformers were measured in water, assuming that they would be nearly identical in FaSSIF aqueous solution.
Dissolution rate of ubiquinone was determined spectrophotometrically. However, as MEC of ubiquinone couldn't be determined in water due to the low solubility of the compound in this medium, concentration of ubiquinone in the dissolution profile was determined by HPLC-MS/MS.
Noyes-Whitney first order exponential equation was fitted to experimental points, providing the dissolution rate values shown in Table 11 below.

The values below come from patent US11952334B2, “Cocrystals of ubiquinone and compositions comprising them” (CENTER FOR INTELLIGENT RESEARCH IN CRYSTAL ENGINEERING, S.L., priority 2018, dated 2024).

Turning to `COC1=C(OC)C(=O)C(C/C=C(\C)CC/C=C(\C)CC/C=C(\C)CC/C=C(\C)CC/C=C(\C)CC/C=C(\C)CC/C=C(\C)CC/C=C(\C)CC/C=C(\C)CCC=C(C)C)=C(C)C1=O` [Compound P57, ubiquinone], in series [1], the D10 is on record as 5.19 μm, the D50 is 28.4 μm, the D90 is given as 41.7 μm and the Mean particle size is reported as 26.0 μm. Besides, in series [1], the Mode particle size is 38.0 μm; the “Percentage of particles between 9.82 μm and 57.8 μm” value (shortened to “Percentage”) is 83.1%. The compound further came in with a Dissolution rate in series [2] of 0.0012 ± 0.0007 µg/min.

In series [1], `COC1=C(OC)C(=O)C(C/C=C(\C)CC/C=C(\C)CC/C=C(\C)CC/C=C(\C)CC/C=C(\C)CC/C=C(\C)CC/C=C(\C)CC/C=C(\C)CC/C=C(\C)CCC=C(C)C)=C(C)C1=O.O=C(O)c1ccc(O)cc1` [Compound P57-III, Ubiquinone:4-hydroxybenzoic acid cocrystal (1:1)] displayed a D10 of 2.51 μm, a D50 of 18.2 μm, a D90 of 36.1 μm and a Mean particle size of 19.0 μm. In series [1], the Mode particle size is recorded as 34.6 μm; the “Percentage” value was 70.5%. In series [2], the “Dissolution rate compared with ubiquinone (in words)” value is listed as “highest dissolution rate” and the Dissolution rate turned out to be 56 ± 8 µg/min.

In series [1], `COC1=C(OC)C(=O)C(C/C=C(\C)CC/C=C(\C)CC/C=C(\C)CC/C=C(\C)CC/C=C(\C)CC/C=C(\C)CC/C=C(\C)CC/C=C(\C)CC/C=C(\C)CCC=C(C)C)=C(C)C1=O.COC1=C(OC)C(=O)C(C/C=C(\C)CC/C=C(\C)CC/C=C(\C)CC/C=C(\C)CC/C=C(\C)CC/C=C(\C)CC/C=C(\C)CC/C=C(\C)CC/C=C(\C)CCC=C(C)C)=C(C)C1=O.Oc1ccc(O)cc1` [Compound P57-VI, Ubiquinone:hydroquinone (2:1)] returned a D10 of 1.69 μm, a D50 of 17.0 μm, a D90 of 34.6 μm and a Mean particle size of 17.2 μm. Also, in series [1], the Mode particle size is listed as 31.5 μm; the “Percentage” value worked out at 58.3%.

In series [1], `COC1=C(OC)C(=O)C(C/C=C(\C)CC/C=C(\C)CC/C=C(\C)CC/C=C(\C)CC/C=C(\C)CC/C=C(\C)CC/C=C(\C)CC/C=C(\C)CC/C=C(\C)CCC=C(C)C)=C(C)C1=O.COC1=C(OC)C(=O)C(C/C=C(\C)CC/C=C(\C)CC/C=C(\C)CC/C=C(\C)CC/C=C(\C)CC/C=C(\C)CC/C=C(\C)CC/C=C(\C)CC/C=C(\C)CCC=C(C)C)=C(C)C1=O.Cc1cc(O)cc(O)c1.Cc1cc(O)cc(O)c1.Cc1cc(O)cc(O)c1` [Compound P57-VII, Ubiquinone:orcinol cocrystal (2:3)] gave a D10 of 2.09 μm, a D50 of 23.5 μm, a D90 of 35.5 μm and a Mean particle size of 20.9 μm. Further, in series [1], the Mode particle size was determined as 31.5 μm; the “Percentage” value was 75.5%. Moreover, in series [2], the “Dissolution rate compared with ubiquinone (in words)” value was “highest dissolution rate” and the Dissolution rate stood at 106 ± 23 µg/min.

`COC1=C(OC)C(=O)C(C/C=C(\C)CC/C=C(\C)CC/C=C(\C)CC/C=C(\C)CC/C=C(\C)CC/C=C(\C)CC/C=C(\C)CC/C=C(\C)CC/C=C(\C)CCC=C(C)C)=C(C)C1=O.COC1=C(OC)C(=O)C(C/C=C(\C)CC/C=C(\C)CC/C=C(\C)CC/C=C(\C)CC/C=C(\C)CC/C=C(\C)CC/C=C(\C)CC/C=C(\C)CC/C=C(\C)CCC=C(C)C)=C(C)C1=O.O.Oc1cc(O)cc(O)c1` [Compound P57-VIII, Ubiquinone:phloroglucinol monohydrate cocrystal (2:1:1)]: in series [1], the D10 was 9.46 μm, the D50 was found to be 22.2 μm, the D90 is 34.0 μm and the Mean particle size amounted to 22.0 μm. In series [1], the Mode particle size was 31.5 μm; the “Percentage” value came to 88.9%. Also, in series [2], the Dissolution rate stood at 3.5 ± 0.4 µg/min.

Take “Ubiquinone:resorcinol cocrystal (2:1) [Compound P57-V]”: in series [1], the Mean particle size was found to be 14.5 μm; the Mode particle size is 31.5 μm; the “Percentage” value turned out to be 52.9%. In series [2], this compound gave a Dissolution rate of 5.7 ± 0.8 µg/min.
